Values quoted from earlier work as cited in patent US20110071136A1, “NOVEL TRICYCLIC PROTEIN KINASE MODULATORS” (CYLENE PHARMACEUTICALS, INC, priority 2009, published 2011).

Legend:
[1] = system: leukemic cells from AML patients; details: Fedorov et al., PNAS 104(51), 20523-28
MOLM-13 (AML) = MOLM-13 (AML) xenograft model; 2008 AACR Annual Meeting, Abstract No. 4974
MV-4-11 (AML) = MV-4-11 (AML) xenograft model; 2008 AACR Annual Meeting, Abstract No. 4974

SMILES	cell growth and cell death [1]	tumor regression (MOLM-13 (AML))	tumor regression (MV-4-11 (AML))
CN(C)C[C@@H]1CCn2cc(c3ccccc32)C2=C(C(=O)NC2=O)c2cn(c3ccccc23)CCO1 [Ly5333'531]	suppressed cell growth and induced cell death	–	–
CN1CCC(CNc2ccc3ncc(-c4cccc(OC(F)(F)F)c4)n3n2)CC1 [SGI-1776]	–	significant tumor regression	significant tumor regression
